From US20250262190A1, “USE OF LAT1 INHIBITORS TO TREAT OBESITY” (Georgetown University, priority 2022, published 2025)

How the values were obtained:
HFD-fed mice [1] = assay: Glucose homeostasis and intraperitoneal glucose tolerance testing in HFD-fed mice; type: in vivo
Description: [data shown as mean±SEM and significance was determined by one-way ANOVA (for analysis shown in Panels A, B, C, D, and G) or multiple unpaired t-test (for analysis shown in Panel F); *P<0.05, **P<0.01, ***P<0.001.]
(§1) A study was conducted to determine if inhibiting Slc7a5 prevents the metabolic response of adipocyte to excess […] intake and obesity. Mice fed with HFD for 3 months were then injected intraperitoneally with either (a) JPH203, a potent Slc7a5 inhibitor, at a dose of 25 mg/kg, or (b) PBS (vehicle) as control, for 15 consecutive days while on HFD (Days 1-15). Mice fed with a normal diet and receiving no injection were included as a comparator.
Mice that were obese due to HFD were hyperglycemic and hyperinsulinemia regardless of fed or fasting status (see FIG. 9, Panels A-D).

[2] = test system: adipose tissues of HFD-fed mice; assay: Nile red and Mitotracker staining of adipose tissues of HFD-fed mice; type: in vivo
Description: [“Epi fat”=epididymal white adipose tissue; “SubQ”=inguinal white adipose tissue; “iBAT”=interscapular brown adipose tissue; data shown as mean±standard error (SE) and significance was determined by one-way ANOVA or unpaired two-tailed t-test; *P<0.05, **P<0.01.]
as §1

HFD-fed mice [3] = assay: Serum levels of adipokine and cytokines by ELISA in HFD-fed mice; type: in vivo; details: 25 mg/kg intraperitoneally, 15 days, vs control HFD-fed mice
Description: Panels A-G show serum levels of leptin, insulin like growth factor 1 (IGF1), monocyte chemoattractant protein-1 (MCP1), vascular endothelial growth factor (VEGF), interleukin 1 alpha (ILla), interleukin 1 beta (IL1β), interleukin 6, and tumor necrosis factor alpha (TNFa), respectively, in normal diet-fed mice, HFD-fed mice injected with JPH203, and control HFD-fed mice. [“AU”=arbitrary unit; data shown as mean±SEM and significance was determined by one-way analysis of variance (ANOVA) or unpaired two-tailed t-test; *P<0.05, **P<0.01; ***P<0.001, ****P<0.0001.]
as §1
Obesity is correlated with chronically high levels of several cytokines which produced primarily by adipose tissues, which play a role in chronic inflammatory states.

HFD-fed mice [4] = assay: Toxicity of JPH203 treatment in HFD-fed mice (liver and kidney function, activity, organ mass, whole blood counts); type: in vivo; details: 25 mg/kg intraperitoneally
Description: as §1
In addition, liver function (AST, ALT), kidney function (creatinine), and effect on bone marrow and immune response (whole blood counts) were tested to examine the toxicity of the pharmacological JPH203 treatment. […] Also, there was no effect of JPH203 treatment on liver, heart, or kidney weight (see FIG. 3, Panel E).

[5] = test system: epididymal white adipose tissue of HFD-fed mice; assay: Gene expression (mRNA) in epididymal white adipose tissue of HFD-fed mice; type: in vivo
Description: as §1
To determine if JPH203 affected adipose tissue function, the epididymal and inguinal white adipose tissues were dissected and analyzed 15 days after treatment.

[6] = test system: differentiated adipocytes 3T3L1 co-cultured with macrophage (RAW 264.7 cells); assay: Adipogenesis in co-culture of adipocyte 3T3L1 and macrophage RAW 264.7 cells; type: cell-based
Description: [Data shown as mean±SE and significance was determined by two-way ANOVA (for analysis shown in Panel B) and unpaired two-tailed t-test (for analysis shown in Panels D-G; *P<0.05, ***P<0.001, ****P<0.0001.]
A study was conducted to determine which aspects of the adipocyte lineage was affected by inhibition of Slc7a5. To this end, pre-adipocytes or differentiated adipocytes 3T3L1 were co-cultured in the presence of macrophage (RAW 264.7 cells). The experimental design is illustrated in FIG. 10, Panel A.
The study examined expression of PPARγ and mTOR, and Nile red stained lipid droplets, which are indicators of adipogenesis and are shown to increase in differentiated adipocytes compared to preadipocytes.

HFD-fed mice [7] = assay: Body weight, fat mass and food intake in HFD-fed mice injected with JPH203; type: in vivo; details: 25 mg/kg intraperitoneally
Description: as §1

[8] = HFD-fed mice injected with JPH203
[9] = HFD-fed mice injected with JPH203 vs control HFD-fed mice
[10] = epididymal and inguinal white adipose tissues, vs control HFD-fed mice
[11] = epididymal adipose tissues, vs control HFD-fed mice
[12] = epididymal white adipose tissue, 15 days after treatment
[13] = epididymal white adipose tissue, 15 days after treatment, vs control HFD-fed mice
[14] = co-culture of 3T3L1 and RAW 264.7 cells
[15] = fully differentiated adipocytes as compared to the preadipocytes, in the presence of macrophages

For `Nc1cc(COc2c(Cl)cc(C[C@H](N)C(=O)O)cc2Cl)c2oc(-c3ccccc3)nc2c1` [JPH203, (S)-2-Amino-3-(4-((5-amino-2-phenylbenzo[d]oxazol-7-yl)methoxy)-3,5-dichlorophenyl)propanoic acid], the “reduction in blood glucose concentration after glucose administration (IPGTT)” value (HFD-fed mice [1]; [8]) was “significantly faster reduction”, the “correlation of weight loss with decreased baseline glucose” value (HFD-fed mice [1]; HFD-fed mice injected with JPH203 compared with control HFD-fed mice) was “positively correlated” and the fasting glucose (HFD-fed mice [1]; [9]) was “lower”. The fed glucose (HFD-fed mice [1]; [9]) was “lower”, the glucose tolerance (HFD-fed mice [1]; [9]) was “improved” and the “mitochondrial biogenesis in interscapular brown adipose tissues (Mitotracker staining)” value [2, 8] was “significantly increased”. For the same compound, the “adipocyte lipid content (Nile red staining)” value [2, 10] was “lower lipid content”, the “adipocyte size (Nile red staining)” value [2, 10] was “smaller sized adipocytes” and the “serum level of IGF1” value (HFD-fed mice [3]) was “decreased”. For the same compound, the “serum level of IL1α” value (HFD-fed mice [3]) was “decreased”, the “serum level of IL1β” value (HFD-fed mice [3]) was “decreased” and the “serum level of IL6” value (HFD-fed mice [3]) was “increased”. The “serum level of MCP1” value (HFD-fed mice [3]) was “decreased”, the “serum level of TNFα” value (HFD-fed mice [3]) was “decreased” and the “serum level of VEGF” value (HFD-fed mice [3]) was “decreased”. The “serum level of leptin” value (HFD-fed mice [3]) was “decreased”, the “Creatine levels (kidney function)” value (HFD-fed mice [4]; 15 days) was “in the normal ranges” and the “complete blood counts (CBC): effect on bone marrow and immune response” value (HFD-fed mice [4]; 15 days) was “no significant effect”. For the same compound, the “mice activity (running wheel experiment)” value (HFD-fed mice [4]; 15 days) was “does not decrease mice activity”, the AST serum level (HFD-fed mice [4]; 15 days, normal is 13-35 IU/L) was “in the normal range” and the ALT serum level (HFD-fed mice [4]; 15 days, normal is 37-88 IU/L) was “in the normal range”. For the same compound, the “Creatine levels compared with control HFD-fed mice” value (HFD-fed mice [4]; 15 days, vs control HFD-fed mice) was “significantly less”, the “liver, heart, or kidney weight” value (HFD-fed mice [4]; day 15) was “no effect” and the “genes related to anti-adipogenic factor” value [5, 11] was “upregulated”. For the same compound, the “genes related to energy dissipation/fatty acid β oxidation” value [5, 11] was “upregulated”, the “genes related to fatty acid uptake” value [5, 11] was “upregulated” and the “genes related to glucose uptake/glycolysis” value [5, 11] was “downregulated”. The “genes related to glyceroneogenesis/fatty acid synthesis” value [5, 11] was “downregulated”, the “genes related to lipogenesis” value [5, 11] was “downregulated” and the “genes related to lipolysis” value [5, 11] was “downregulated”. The “genes related to pentose phosphate pathway (NADPH production)” value [5, 11] was “downregulated”, the “Hif2α expression (downstream target of mTOR signaling)” value [5, 12] was “decreased” and the Slc7a5 expression [5, 12] was “did not change”. The “anti-inflammatory arginase 1 (Arg1) gene expression” value [5, 12] was “increased”, the “proinflammatory nitric oxide synthase 2 (Nos2/Inos) gene expression” value [5, 12] was “reduced” and the “mRNA levels for beiging and browning markers” value [5, 13] was “increased”. The “mRNA levels for general adipogenic markers” value [5, 13] was “decreased”, the “mRNA levels for white adipogenic markers” value [5, 13] was “decreased” and the adipocyte differentiation [6, 14] was “decreased”. For the same compound, the “cell survival / cell death” value [6, 14] was “does not affect cell survival”, the “lipid droplets (Nile red stained)” value [6, 14] was “reduction” and the PPARγ expression [6, 15] was “reduced”. For the same compound, the mTOR expression [6, 15] was “reduced”, the “mass of interscapular brown adipose tissue and epididymal and inguinal white adipose tissue, normal fed mice compared to HFD-fed mice injected with JPH203” value (HFD-fed mice [7]; at 15 days) was “not significantly less” and the body weight (HFD-fed mice [7]; HFD-fed mice, after 15 days, vs HFD-fed mice injected with vehicle (PBS)) was “significant weight reduction”. For the same compound, the “mass of epididymal white adipose tissue” value (HFD-fed mice [7]; HFD-fed mice, at 15 days, vs control HFD-fed mice) was “significantly less” and the “appetite suppression (food and water consumption) as contributor to weight loss” value (HFD-fed mice [7]; HFD-fed mice, over 15 days) was “not a major contributing factor”.
